“And” between values parts separate entries of the source, which are not always exact repeats. Equal values may be shown once.
Key:
recombinant human PKLR = target: T1, recombinant human PKLR (Homo sapiens, UniProt P30613); assay: Human PKLR activation assay (Kinase-Glo Plus luminescence, ATP generated); format: biochemical; conditions: * = repeat experiments; for EC50: activation of N-terminal His-tagged hPKLR, 4-parameter logistic fit; for Emax: read-out: hPKLR Emax
T1 construct: His (N); purchased R&D Systems
T1 sequence (P30613 whole entry): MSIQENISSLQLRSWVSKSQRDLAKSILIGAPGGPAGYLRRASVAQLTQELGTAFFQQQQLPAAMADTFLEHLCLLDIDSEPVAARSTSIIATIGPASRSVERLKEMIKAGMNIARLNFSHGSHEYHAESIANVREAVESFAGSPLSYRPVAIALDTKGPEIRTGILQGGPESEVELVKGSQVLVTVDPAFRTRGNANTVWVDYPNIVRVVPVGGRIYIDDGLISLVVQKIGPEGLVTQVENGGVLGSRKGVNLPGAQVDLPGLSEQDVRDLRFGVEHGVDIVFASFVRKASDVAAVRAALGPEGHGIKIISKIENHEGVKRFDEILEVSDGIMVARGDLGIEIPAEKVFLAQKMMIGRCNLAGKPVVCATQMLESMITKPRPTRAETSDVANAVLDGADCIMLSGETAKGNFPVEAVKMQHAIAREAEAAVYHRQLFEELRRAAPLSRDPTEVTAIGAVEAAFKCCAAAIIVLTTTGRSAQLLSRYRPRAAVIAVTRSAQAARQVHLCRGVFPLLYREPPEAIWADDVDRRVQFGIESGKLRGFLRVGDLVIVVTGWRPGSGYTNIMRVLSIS
Method: Biological Example 2—Human PKLR Activation Assay
Measuring In Vitro Activation of Recombinant Human PKLR
(§1) Compound activation of recombinant human PKLR pyruvate kinase activity was determined by biochemical assay. N-terminal His-tagged enzyme was sourced from R&D Systems and its substrates phosphoenolpyruvate (PEP) and ADP from Sigma-Aldrich and 2Bscientific Ltd, respectively. The Kinase-Glo® Plus luminescence assay was from Promega. All other reagents were from Sigma-Aldrich. Test Compounds were prepared as 10 mM DMSO stocks and dilution series prepared in DMSO for direct dilution into Assay Buffer comprising 50 mM imidazole, 50 mM KCl, 7 mM MgCl2, 0.01% Tween20, 0.05% BSA (pH 7.2).
Human PKLR was diluted into Assay Buffer to a final concentration of 5 μM. Enzyme-Assay Buffer mix was dispensed into 384-well shallow-well white-walled plates and Test Compounds added by acoustic dispense (Echo®, Labcyte Inc). Following 10 minutes' incubation at room temperature, the enzyme reaction was initiated by acoustic dispensing of ADP+PEP substrate to final concentrations of 254 μM ADP and 53 μM […].
(§2) After 60 minutes' incubation on an orbital shaker (300 rpm, 26° C.), enzyme activity was quantified by the luminescent detection of generated ATP. Kinase-Glo® Plus reagent was added to each well and the plates incubated for a further 15 minutes on an orbital shaker in the dark (300 rpm, 26° C.) before luminescence measurement on a plate reader (PHERAstar® FSX, BMG Labtech).
(§3) Percentage activation was calculated by normalising […] signals to plate LOW (DMSO vehicle) and HIGH (5 μM TEPP-46) controls. EC50 and Emax values were determined from 4-parameter logistic fits of compound concentration-response curves.

[1] = target: T2, pyruvate kinase in human CD4+ T cell lysates (Homo sapiens, UniProt P14618); assay: CD4+ T cell pyruvate kinase assay (PK activity in lysates of compound-treated cells); format: cell-based; conditions: primary human CD4+ T cells incubated with compound 20 minutes, washed, lysed; ΔAbsorbance OD570 nm
T2 construct: endogenous in cells; host or cells: primary human CD4+ T cells
T2 sequence (P14618 2-531 limits assumed): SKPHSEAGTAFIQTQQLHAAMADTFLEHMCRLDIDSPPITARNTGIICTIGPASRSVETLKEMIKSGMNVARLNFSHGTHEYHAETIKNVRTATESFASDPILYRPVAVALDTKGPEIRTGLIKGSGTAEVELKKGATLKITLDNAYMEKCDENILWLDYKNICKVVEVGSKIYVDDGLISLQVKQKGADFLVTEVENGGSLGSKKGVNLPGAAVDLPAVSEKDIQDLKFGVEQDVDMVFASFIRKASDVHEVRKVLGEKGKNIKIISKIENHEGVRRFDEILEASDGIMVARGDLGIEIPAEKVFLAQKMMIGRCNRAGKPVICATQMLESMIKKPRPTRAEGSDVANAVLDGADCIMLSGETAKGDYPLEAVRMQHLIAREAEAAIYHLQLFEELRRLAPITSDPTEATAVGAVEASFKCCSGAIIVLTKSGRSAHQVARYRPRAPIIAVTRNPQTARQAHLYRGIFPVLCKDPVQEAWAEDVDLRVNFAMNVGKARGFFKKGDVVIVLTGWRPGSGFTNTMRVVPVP
Method: Measuring Pyruvate Kinase (PK) Activity in Human CD4+ T Cell Lysates
Compound activation of pyruvate kinase in human CD4+ T cell lysates was determined by biochemical assay. Primary CD4+ T cells were used rather than cancer cell lines to improve the disease relevance of the assay. The PK assay was sourced from Abcam. All other reagents were sourced from ThermoFisher. Test compounds were prepared as 10 mM DMSO stocks and dilution series prepared in DMSO for addition to intact CD4+ T cells cultured in RPMI media containing 10% FBS.
Human CD4+ T cells were incubated with compound for 20 minutes and then washed twice in 1×PBS before resuspension in Abcam PK lysis buffer to prepare cell lysates. 10 μl PK assay Reaction Mix was added per well, including OXIRED™ PROBE. The plates were read using a BMG Labtech Pherastar plate reader at OD570 nm in kinetic mode for […] (25 cycles of 2 minutes) at 25° C., protecting from light.
Plates were blank-subtracted and ΔAbsorbance calculated by subtracting the first plate read within the linear range from the plate read at the timepoint of interest. PK activity is expressed as ΔAbsorbance and plotted against log [Compound].

recombinant human PKM2 = target: T3, recombinant human PKM2 (Homo sapiens, UniProt P14618); assay: Human PKM2 activation assay (Kinase-Glo Plus luminescence, ATP generated); format: biochemical; conditions: * = repeat experiments; for EC50: activation of N-terminal His-tagged hPKM2, 4-parameter logistic fit; for Emax: read-out: hPKM2 Emax
T3 construct: His (N); purchased R&D Systems
T3 sequence (P14618 whole entry): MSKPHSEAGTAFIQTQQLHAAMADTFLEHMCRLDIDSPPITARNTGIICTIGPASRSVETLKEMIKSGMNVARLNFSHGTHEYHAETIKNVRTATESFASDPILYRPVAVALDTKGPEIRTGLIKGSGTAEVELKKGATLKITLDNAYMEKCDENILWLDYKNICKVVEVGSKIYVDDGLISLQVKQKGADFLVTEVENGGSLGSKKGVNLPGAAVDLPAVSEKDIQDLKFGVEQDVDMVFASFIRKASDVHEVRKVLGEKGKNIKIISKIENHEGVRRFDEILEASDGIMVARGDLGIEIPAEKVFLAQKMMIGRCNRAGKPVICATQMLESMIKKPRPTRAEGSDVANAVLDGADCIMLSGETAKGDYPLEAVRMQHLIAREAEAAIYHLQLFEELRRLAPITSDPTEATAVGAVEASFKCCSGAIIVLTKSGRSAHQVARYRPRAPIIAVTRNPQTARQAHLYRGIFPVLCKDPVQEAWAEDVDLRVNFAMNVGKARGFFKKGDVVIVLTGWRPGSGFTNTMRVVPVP
Method: Measuring In Vitro Activation of Recombinant Human PKM2
as §1, with “PKM2” for “PKLR”, “hPKM2” for “enzyme”
Human PKM2 was diluted into Assay Buffer comprising 50 mM imidazole, 50 mM KCl, 7 mM MgCl2, 0.01% Tween20, 0.05% BSA (pH 7.2) to a final concentration of […]. Enzyme-Assay Buffer mix was dispensed into a 384-well shallow-well white-walled plate (PerkinElmer) and Test Compounds added by acoustic dispense (Echo®, Labcyte Inc.).
as §2, §3

[2] = percentage activation normalised to DMSO (LOW) and 5 μM TEPP-46 (HIGH)

| EC50 (recombinant human PKLR) | hPKLR Emax (recombinant human PKLR; [2]) | Emax (recombinant human PKLR; [2]) [%] | EC50 [1] [nM] | EC50 (recombinant human PKM2) | hPKM2 Emax (recombinant human PKM2; [2]) | Emax (recombinant human PKM2; [2]) [%] | SMILES |
| --- | --- | --- | --- | --- | --- | --- | --- |
| 23.3 nM and 27.6 nM | 128* % | 121 | 93 | 98.9 nM and 207 nM | 104* % | 110 | Cn1cc(S(=O)(=O)c2ccc3c(=O)n(Cc4cc5n(n4)CCO5)ncc3c2)cn1 [Example 5, 2-((2,3-dihydropyrazolo[5,1-b]oxazol-6-yl)methyl)-6-((1-methyl-1H-pyrazol-4-yl)sulfonyl)phthalazin-1(2H)-one] |
| 6.4 nM |  | 122 | 125 | 51 nM |  | 91 | O=c1c2ccc(S(=O)(=O)c3cn[nH]c3)cc2cnn1Cc1cc2n(n1)CCO2 [Example 4, 6-((1H-pyrazol-4-yl)sulfonyl)-2-((2,3-dihydropyrazolo[5,1-b]oxazol-6-yl)methyl)phthalazin-1(2H)-one] |
| 33.1 nM |  | 123 | 168 | 104 nM |  | 100 | O=c1c2ccc(S(=O)(=O)c3cnn(C(F)F)c3)cc2cnn1Cc1cc[nH]n1 [Example 2, 2-((1H-pyrazol-3-yl)methyl)-6-((1-(difluoromethyl)-1H-pyrazol-4-yl)sulfonyl)phthalazin-1(2H)-one] |
| 6.6 nM |  | 118 | 70 | 50 nM |  | 108 | O=c1c2ccc(S(=O)(=O)c3cnn(CCO)c3)cc2cnn1Cc1ccc2c(n1)CCO2 [Example 3, 2-((2,3-dihydrofuro[3,2-b]pyridin-5-yl)methyl)-6-((1-(2-hydroxyethyl)-1H-pyrazol-4-yl)sulfonyl)phthalazin-1(2H)-one] |
|  |  |  | 94 | 43 nM |  | 94 | Cc1[nH]nc(Cn2ncc3cc(S(=O)(=O)c4cc[nH]n4)ccc3c2=O)c1Cl [Example 6, 6-((1H-pyrazol-3-yl)sulfonyl)-2-((4-chloro-5-methyl-1H-pyrazol-3-yl)methyl)phthalazin-1(2H)-one] |
| 16 nM |  | 119 | 97 | 114 nM |  | 111 | COc1ccc(Cn2ncc3cc(S(=O)(=O)c4cn[nH]c4)ccc3c2=O)nc1 [Example 1, 6-((1H-pyrazol-4-yl)sulfonyl)-2-((5-methoxypyridin-2-yl)methyl)phthalazin-1(2H)-one] |

Source: US12448367B2, “Phthalazine derivatives as pyruvate kinase modulators” (Sitryx Therapeutics Limited, priority 2022, dated 2025)
